Laboratory results as given in patent US7892840B2, “Media compositions for eluting compounds from matrices and methods for making and using them” (Medtronic MiniMed, Inc., priority 2008, dated 2011).
Read-outs that look alike come from different tables or passages of the source.

What was measured:
[1] = cited from earlier work
[2] = cited from earlier work; remark: listed apart in the source
[3] = Elution of dexamethasone sodium phosphate from drug coated pace maker leads in conventional media; format: physicochemical; conditions: e.g. a media that utilizes just a surfactant
From the text: The data disclosed in FIGS. 1-6 provides illustrative embodiments of the methods of invention that examine the elution of dexamethasone sodium phosphate from a polymeric silicone matrix. These examples provide an illustration of the power of the methodological embodiments of the invention, in particular in view of the fact that the elution of dexamethasone sodium phosphate from silicone polymer/drug coated pace maker leads is known to be minimal in conventional solvents. For example, certain elution media and methods may not be ideal for all drugs (e.g. dexamethasone sodium phosphate). For example, dexamethasone sodium phosphate is water soluble whereas typical methodologies described in the art are more suitable for water insoluble or sparingly soluble drugs. […]
While the methodological embodiments of the invention can be used to assess the elution of a wide variety of compounds from a wide variety of matrices, these methods of the invention are particularly useful in the context of the manufacture of drug eluting implantable medical devices. For example, the safety and efficacy of drug coated pace maker leads are readily evaluated using the unique dissolution methods and materials disclosed herein. […]

[4] = format: physicochemical
Experimental: To evaluate buffers with different pH, Dexamethasone sodium phosphate can be dissolved in an elution media (e.g. one of the different embodiments of the invention disclosed herein). […] This concentration was about 10 times the concentration that might be observed if the drug from the typical device was completely eluted in about 75 mL of media.

| Compound | miscibility in alcohols and ether ([1]; alcohols and ether) | solubility in water [1] [g/100 mL] | elution from silicone polymer/drug coated pace maker leads in conventional solvents [2] | solubility in water ([1]; in words) | solubility in water ([1]; in words, listed as dexamethasone sodium phosphate) | elution of the drug in conventional media systems [3] | stability with respect to pH (rank order) [4] |
| --- | --- | --- | --- | --- | --- | --- | --- |
| OCc1ccccc1 [Benzyl alcohol, Phenylmethanol] | completely miscible | 4 | – | – | – | – | – |
| C[C@@H]1C[C@H]2[C@@H]3CCC4=CC(=O)C=C[C@]4(C)[C@@]3(F)[C@@H](O)C[C@]2(C)[C@@]1(O)C(=O)COP(=O)(O)O [Dexamethasone sodium phosphate] | – | – | minimal | freely soluble in water | water soluble | minimal | pH 4>pH 7.5>pH 9 |
